Experimental data: ChEMBL document CHEMBL4325863, “Investigating alkyl nitrates as nitric oxide releasing precursors of multitarget acetylcholinesterase-monoamine oxidase B inhibitors” (Eur J Med Chem, 2019)

Columns and labels:
[1] = Efflux ratio of apparent permeability in MDCK2-MDR1 cells by UV-Visible spectrophotometric method; format: ADME, cell-based, Canis lupus familiaris; settings: dog, MDCK-MDR1
[2] = Apparent permeability from basolateral to apical side in MDCK2-MDR1 cells by UV-Visible spectrophotometric method; format: ADME, cell-based, Canis lupus familiaris; settings: dog, MDCK-MDR1
[3] = molecular target: Cholinesterase (Equus caballus, UniProt P81908); assay: Inhibition of equine serum BuChE using butyrylthiocholine iodide as substrate by Ellman's method
[4] = molecular target: T1, Amine oxidase [flavin-containing] B (Homo sapiens, UniProt P27338); assay: Inhibition of recombinant human MAO-B expressed in baculovirus infected insect cell microsomes using kynuramine as substrate measured after 30 mins by fluorescence based assay
T1 sequence (P27338 whole entry): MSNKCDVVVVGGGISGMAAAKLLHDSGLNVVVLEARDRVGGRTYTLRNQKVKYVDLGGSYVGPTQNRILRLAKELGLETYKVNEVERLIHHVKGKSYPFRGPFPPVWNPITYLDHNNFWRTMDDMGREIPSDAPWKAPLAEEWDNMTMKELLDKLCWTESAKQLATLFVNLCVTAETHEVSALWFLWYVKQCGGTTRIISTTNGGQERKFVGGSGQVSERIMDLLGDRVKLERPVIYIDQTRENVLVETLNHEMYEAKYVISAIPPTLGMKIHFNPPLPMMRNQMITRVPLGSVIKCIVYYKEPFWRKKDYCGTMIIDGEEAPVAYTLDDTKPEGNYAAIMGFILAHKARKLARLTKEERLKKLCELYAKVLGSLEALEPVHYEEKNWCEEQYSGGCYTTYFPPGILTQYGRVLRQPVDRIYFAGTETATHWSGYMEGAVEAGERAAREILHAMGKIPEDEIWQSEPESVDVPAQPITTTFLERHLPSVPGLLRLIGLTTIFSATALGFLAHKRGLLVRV

[5] = test system: SH-SY5Y; assay: Neuroprotection against rotenone/H2O2-induced cell death in human SH-SY5Y cells assessed as increase in cell viability preincubated for 24 hrs followed by rotenone/H2O2 addition measured after 24 hrs by MTT assay; format: functional, cell-based
[6] = molecular target: Acetylcholinesterase (Homo sapiens, UniProt P22303); assay: Inhibition of human recombinant AChE using acetylthiocholine iodide as substrate by Ellman's method
[7] = Apparent permeability from apical to basolateral side in MDCK2-MDR1 cells by UV-Visible spectrophotometric method; format: ADME, cell-based, Canis lupus familiaris; settings: dog, MDCK-MDR1
[8] = test system: SH-SY5Y; assay: Cytotoxicity against human SH-SY5Y cells assessed as reduction in cell viability after 24 hrs by MTT assay; format: cell-based
[9] = molecular target: T2, Amine oxidase [flavin-containing] A (Homo sapiens, UniProt P21397); assay: Inhibition of recombinant human MAO-A expressed in baculovirus infected insect cell microsomes using kynuramine as substrate measured after 30 mins by fluorescence based assay
T2 sequence (P21397 whole entry): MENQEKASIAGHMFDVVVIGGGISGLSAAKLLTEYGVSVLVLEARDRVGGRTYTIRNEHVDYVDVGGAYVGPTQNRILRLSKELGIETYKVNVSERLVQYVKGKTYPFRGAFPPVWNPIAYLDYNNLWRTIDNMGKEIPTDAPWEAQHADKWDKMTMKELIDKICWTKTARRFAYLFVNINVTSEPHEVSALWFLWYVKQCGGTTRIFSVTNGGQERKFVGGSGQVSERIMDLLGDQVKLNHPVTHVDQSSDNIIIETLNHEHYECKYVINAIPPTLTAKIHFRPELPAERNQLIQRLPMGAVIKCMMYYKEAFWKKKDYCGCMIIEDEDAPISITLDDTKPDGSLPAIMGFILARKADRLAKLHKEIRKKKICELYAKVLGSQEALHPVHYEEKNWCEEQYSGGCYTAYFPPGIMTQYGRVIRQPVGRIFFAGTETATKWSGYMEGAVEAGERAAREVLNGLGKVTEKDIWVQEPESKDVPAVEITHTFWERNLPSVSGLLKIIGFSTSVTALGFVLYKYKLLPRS

[10] = molecular target: Acetylcholinesterase (Electrophorus electricus, UniProt O42275); assay: Inhibition of electric eel AChE using acetylthiocholine iodide as substrate by Ellman's method
[11] = molecular target: Cholinesterase (Equus caballus) (UniProt P81908); assay: Inhibition of equine serum BuChE at 10 uM using butyrylthiocholine iodide as substrate by Ellman's method relative to control
[12] = molecular target: T2, Amine oxidase [flavin-containing] A; assay: Inhibition of recombinant human MAO-A expressed in baculovirus infected insect cell microsomes at 10 uM using kynuramine as substrate measured after 30 mins by fluorescence based assay relative to control; settings: 0.5 h
[13] = species on record: Homo sapiens; assay: Selectivity index, ratio of IC50 for recombinant human MAO-A to IC50 for recombinant human MAO-B
[14] = Selectivity index, ratio of IC50 for equine serum BuChE to IC50 for electric eel AChE
[15] = molecular target: T3, Cholinesterase (Homo sapiens, UniProt P06276); assay: Inhibition of human serum BuChE using butyrylthiocholine iodide as substrate by Ellman's method
[16] = molecular target: T1, Amine oxidase [flavin-containing] B; assay: Inhibition of recombinant human MAO-B expressed in baculovirus infected insect cell microsomes at 10 uM using kynuramine as substrate measured after 30 mins by fluorescence based assay relative to control; settings: 0.5 h
[17] = molecular target: T1, Amine oxidase [flavin-containing] B; assay: Inhibition of recombinant human MAO-B expressed in baculovirus infected insect cell microsomes using kynuramine as substrate measured after 30 mins by spectrophotometric assay
[18] = molecular target: T3, Cholinesterase; assay: Inhibition of human serum BuChE at 10 uM using butyrylthiocholine iodide as substrate by Ellman's method relative to control
[19] = Drug metabolism in pH 7.4 PBS buffer assessed as 7-{[1-(3-Hydroxypropyl)piperidin-4-yl]methoxy}-3,4-dimethyl-2H-chromen-2-one formation at 100 uM up to 30 hrs in presence of glutathione by RP-HPLC method
[20] = Drug metabolism in pH 7.4 PBS buffer assessed as 7-{[1-(3-Hydroxypropyl)piperidin-4-yl]methoxy}-3,4-dimethyl-2H-chromen-2-one formation at 100 uM after 24 hrs by RP-HPLC method
[21] = Drug metabolism in pH 7.4 PBS buffer assessed as 7-{[1-(3-Hydroxypropyl)piperidin-4-yl]methoxy}-3,4-dimethyl-2H-chromen-2-one formation at 100 uM up to 30 hrs in presence of cysteine by RP-HPLC method
[22] = Drug metabolism in PBS buffer assessed as nitric oxide release at 150 uM in presence of cysteine by Griess reagent based UV-Visible spectrophotometric method; settings: TDE = time-dependent effect
[23] = Half life in human serum at 100 uM by RP-HPLC method; format: ADME, cell-free
[24] = Drug metabolism in pH 7.4 PBS buffer assessed as 7-({1-[3-(Hydroxymethyl)benzyl]piperidin-4-yl}methoxy)-3,4-dimethyl-2H-chromen-2-one formation at 100 uM up to 30 hrs in presence of glutathione by RP-HPLC method
[25] = Drug metabolism in pH 7.4 PBS buffer assessed as 7-({1-[3-(Hydroxymethyl)benzyl]piperidin-4-yl}methoxy)-3,4-dimethyl-2H-chromen-2-one formation at 100 uM up to 30 hrs in presence of cysteine by RP-HPLC method
[26] = Drug metabolism in pH 7.4 PBS buffer assessed as 7-({1-[3-(Hydroxymethyl)benzyl]piperidin-4-yl}methoxy)-3,4-dimethyl-2H-chromen-2-one formation at 100 uM after 24 hrs by RP-HPLC method

Sequence of Cholinesterase (Equus caballus, UniProt P81908) (P81908 whole entry): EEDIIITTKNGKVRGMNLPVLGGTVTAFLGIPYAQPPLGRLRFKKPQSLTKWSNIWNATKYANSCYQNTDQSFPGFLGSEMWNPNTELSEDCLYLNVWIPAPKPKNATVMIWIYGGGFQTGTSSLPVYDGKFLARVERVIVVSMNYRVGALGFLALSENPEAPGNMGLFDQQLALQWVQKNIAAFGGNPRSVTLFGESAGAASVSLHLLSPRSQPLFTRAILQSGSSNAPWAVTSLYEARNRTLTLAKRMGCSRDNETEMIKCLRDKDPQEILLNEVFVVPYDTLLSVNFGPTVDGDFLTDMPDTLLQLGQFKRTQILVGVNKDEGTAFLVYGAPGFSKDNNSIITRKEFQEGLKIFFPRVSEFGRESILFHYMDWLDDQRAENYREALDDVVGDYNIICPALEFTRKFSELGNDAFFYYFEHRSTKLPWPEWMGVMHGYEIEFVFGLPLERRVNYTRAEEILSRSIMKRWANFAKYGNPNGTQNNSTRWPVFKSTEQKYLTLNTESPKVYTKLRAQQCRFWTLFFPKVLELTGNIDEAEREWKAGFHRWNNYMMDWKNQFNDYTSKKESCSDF
Sequence of Cholinesterase (Equus caballus) (P81908 whole entry): as above
Sequence of Acetylcholinesterase (Electrophorus electricus, UniProt O42275) (O42275 whole entry): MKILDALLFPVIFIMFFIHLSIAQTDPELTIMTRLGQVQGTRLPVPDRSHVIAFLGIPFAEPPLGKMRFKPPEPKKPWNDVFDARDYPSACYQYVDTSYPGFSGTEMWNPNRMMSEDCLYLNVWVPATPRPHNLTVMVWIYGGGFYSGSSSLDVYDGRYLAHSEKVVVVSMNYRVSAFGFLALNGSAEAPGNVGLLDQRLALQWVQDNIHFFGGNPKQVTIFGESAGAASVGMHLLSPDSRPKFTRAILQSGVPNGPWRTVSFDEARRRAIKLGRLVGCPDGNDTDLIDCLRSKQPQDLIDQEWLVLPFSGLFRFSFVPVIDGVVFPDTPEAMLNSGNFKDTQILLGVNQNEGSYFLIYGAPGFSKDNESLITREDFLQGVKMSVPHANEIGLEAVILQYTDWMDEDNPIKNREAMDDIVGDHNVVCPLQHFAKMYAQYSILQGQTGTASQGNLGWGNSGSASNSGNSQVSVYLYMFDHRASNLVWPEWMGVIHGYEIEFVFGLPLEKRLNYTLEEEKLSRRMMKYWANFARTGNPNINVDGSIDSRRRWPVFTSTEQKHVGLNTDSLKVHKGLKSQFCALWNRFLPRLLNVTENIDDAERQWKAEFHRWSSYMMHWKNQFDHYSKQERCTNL
Sequence of Acetylcholinesterase (Homo sapiens, UniProt P22303) (P22303 whole entry): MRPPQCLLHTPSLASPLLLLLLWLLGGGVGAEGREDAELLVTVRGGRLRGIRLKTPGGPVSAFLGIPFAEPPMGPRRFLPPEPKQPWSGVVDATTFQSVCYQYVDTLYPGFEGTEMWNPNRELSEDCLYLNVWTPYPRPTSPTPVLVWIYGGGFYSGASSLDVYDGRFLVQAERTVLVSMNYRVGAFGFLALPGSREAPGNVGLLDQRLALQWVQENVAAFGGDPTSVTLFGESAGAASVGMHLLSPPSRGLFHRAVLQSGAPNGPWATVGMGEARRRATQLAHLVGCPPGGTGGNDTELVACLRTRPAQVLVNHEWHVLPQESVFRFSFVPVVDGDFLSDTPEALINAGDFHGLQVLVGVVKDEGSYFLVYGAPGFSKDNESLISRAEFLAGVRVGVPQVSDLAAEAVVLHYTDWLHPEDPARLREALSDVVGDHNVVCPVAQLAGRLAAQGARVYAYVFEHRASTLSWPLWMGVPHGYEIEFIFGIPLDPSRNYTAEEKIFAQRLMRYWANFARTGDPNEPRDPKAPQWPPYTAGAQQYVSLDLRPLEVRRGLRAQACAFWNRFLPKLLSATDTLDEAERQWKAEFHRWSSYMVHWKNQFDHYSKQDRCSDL
T3 sequence (P06276 whole entry): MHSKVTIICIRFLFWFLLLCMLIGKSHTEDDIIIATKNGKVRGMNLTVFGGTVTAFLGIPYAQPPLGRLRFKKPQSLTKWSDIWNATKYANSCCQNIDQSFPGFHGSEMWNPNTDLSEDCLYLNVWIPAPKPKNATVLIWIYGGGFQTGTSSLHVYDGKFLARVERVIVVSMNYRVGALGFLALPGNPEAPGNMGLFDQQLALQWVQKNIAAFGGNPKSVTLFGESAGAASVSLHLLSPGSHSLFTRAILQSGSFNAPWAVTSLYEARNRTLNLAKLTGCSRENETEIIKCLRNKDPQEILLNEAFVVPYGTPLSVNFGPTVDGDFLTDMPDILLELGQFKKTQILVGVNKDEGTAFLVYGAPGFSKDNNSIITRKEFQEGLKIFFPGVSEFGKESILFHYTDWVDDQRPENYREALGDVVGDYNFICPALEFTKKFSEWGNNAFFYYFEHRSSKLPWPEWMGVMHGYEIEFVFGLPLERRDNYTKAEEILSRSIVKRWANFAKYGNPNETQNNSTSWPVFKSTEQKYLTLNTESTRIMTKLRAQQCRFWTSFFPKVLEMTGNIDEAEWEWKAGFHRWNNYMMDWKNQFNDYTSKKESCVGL

Cc1c(C)c2ccc(OCC3CCN(Cc4cccc(CO)c4)CC3)cc2oc1=O
efflux ratio [1]: 1.09
Papp B→A [2]: 21.5 ×10⁻⁶ cm/s
IC50 [3]: 1300 nM
IC50 [4]: 76 nM
Activity [5]: Dose-dependent effect
IC50 [6]: 1400 nM
Papp A→B [7]: 19.8 ×10⁻⁶ cm/s
Activity [8]: 43 µM
IC50 [9]: 1900 nM
IC50 [10]: 1000 nM

CN(C)Cc1cccc(COc2ccc3c(CO)cc(=O)oc3c2)c1
inhibition [11]: 36%
IC50 [4]: 54 nM
inhibition at 10 µM [12]: 42%
IC50 [10]: 5900 nM

Cc1c(C)c2ccc(OCC3CCN(Cc4cccc(OCCCO)c4)CC3)cc2oc1=O
Ratio IC50 [13]: 0.7
Ratio IC50 [14]: 0.1
IC50 [3]: 180 nM
IC50 [4]: 780 nM
IC50 [6]: 840 nM
IC50 [15]: 740 nM
IC50 [9]: 550 nM
IC50 [10]: 1800 nM

O=c1ccc2ccc(OCC3CCCN(CCCO)C3)cc2o1 (stereo not drawn)
IC50 [3]: 1700 nM
inhibition at 10 µM [12]: 14%
inhibition at 10 µM [16]: 42%
IC50 [10]: 3500 nM

Cc1c(C)c2ccc(OCC3CCCN(CCCO)C3)cc2oc1=O (stereo not drawn)
inhibition [11]: 26%
IC50 [4]: 1500 nM
inhibition at 10 µM [12]: 41%
IC50 [10]: 1800 nM

Cc1cc2ccc(OCC3CCN(Cc4cccc(CO)c4)CC3)cc2oc1=O
IC50 [3]: 910 nM
IC50 [4]: 1100 nM
IC50 [9]: 3900 nM
IC50 [10]: 3200 nM

Cc1c(C)c2ccc(OCC3CCCN(Cc4cccc(CO)c4)C3)cc2oc1=O (stereo not drawn)
IC50 [3]: 2700 nM
IC50 [4]: 110 nM
IC50 [9]: 2200 nM
IC50 [10]: 900 nM

CN(C)Cc1cc(=O)oc2cc(OCc3ccc(CO)cc3)ccc12
IC50 [3]: 11000 nM
IC50 [4]: 630 nM
inhibition at 10 µM [12]: 23%
IC50 [17]: 770 nM
IC50 [10]: 1300 nM

Cc1c(C)c2ccc(OCC3CCN(Cc4ccc(CO)cc4)CC3)cc2oc1=O
Ratio IC50 [13]: 48
IC50 [3]: 8800 nM
IC50 [4]: 29 nM
IC50 [9]: 1400 nM
IC50 [17]: 39 nM
IC50 [10]: 1000 nM

Cc1c(C)c2ccc(OCC3CCN(CCCO)CC3)cc2oc1=O
inhibition [18]: < 5%
efflux ratio [1]: 1.5
Papp B→A [2]: 14.9 ×10⁻⁶ cm/s
inhibition [11]: 30%
IC50 [4]: 480 nM
Activity [5]: Dose-dependent effect
IC50 [6]: 890 nM
Papp A→B [7]: 9.92 ×10⁻⁶ cm/s
inhibition at 10 µM [12]: 44%
Activity [8]: > 100 µM
IC50 [10]: 1300 nM

Cc1c(C)c2ccc(OCC3CCN(CCCCO)CC3)cc2oc1=O
IC50 [3]: 8300 nM
IC50 [4]: 3600 nM
inhibition at 10 µM [12]: 30%
IC50 [10]: 500 nM

Cc1c(C)c2ccc(OCC3CCCN(Cc4ccc(CO)cc4)C3)cc2oc1=O (stereo not drawn)
IC50 [3]: 8600 nM
IC50 [4]: 76 nM
IC50 [9]: 1100 nM
IC50 [10]: 1200 nM

CN(C)Cc1ccc(COc2ccc3c(CO)cc(=O)oc3c2)cc1
inhibition [11]: 43%
IC50 [4]: 78 nM
inhibition at 10 µM [12]: 20%
IC50 [17]: 74 nM
IC50 [10]: 4500 nM

Cc1cc(=O)oc2cc(OCC3CCN(Cc4ccc(CO)cc4)CC3)ccc12
inhibition [11]: 45%
IC50 [4]: 600 nM
IC50 [9]: 11000 nM
IC50 [10]: 1600 nM

Cc1c(C)c2ccc(OCc3cccc(CN4CCC(CO)CC4)c3)cc2oc1=O
IC50 [3]: 1000 nM
IC50 [4]: 320 nM
inhibition at 10 µM [12]: 23%
IC50 [10]: 2900 nM

Cc1c(C)c2ccc(OCC3CCN(Cc4ccc(CCO)cc4)CC3)cc2oc1=O
inhibition [11]: 41%
IC50 [4]: 120 nM
IC50 [9]: 1700 nM
IC50 [10]: 1200 nM

Cc1c(C)c2ccc(OCC3CCN(CCCO[N+](=O)[O-])CC3)cc2oc1=O
inhibition [18]: < 5%
Drug metabolism [19]: Metabolite not detected
efflux ratio [1]: 3.17
Papp B→A [2]: 15.7 ×10⁻⁶ cm/s
IC50 [4]: 250 nM
Drug metabolism [20]: Metabolite detected
Activity [5]: Dose-dependent effect
IC50 [6]: 860 nM
Drug metabolism [21]: Metabolite not detected
Drug metabolism [22]: Tde
Papp A→B [7]: 4.96 ×10⁻⁶ cm/s
half-life at 100 µM [23]: 23 h
inhibition at 10 µM [12]: 36%
Activity [8]: > 100 µM

Cc1c(C)c2ccc(OCC3CCN(Cc4cccc(CO[N+](=O)[O-])c4)CC3)cc2oc1=O
Drug metabolism [24]: Metabolite detected
efflux ratio [1]: 1.33
Papp B→A [2]: 16.5 ×10⁻⁶ cm/s
Drug metabolism [25]: Metabolite detected
IC50 [4]: 51 nM
Activity [5]: Dose-dependent effect
Drug metabolism [26]: 7%
IC50 [6]: 1300 nM
Drug metabolism [22]: Tde
Papp A→B [7]: 12.4 ×10⁻⁶ cm/s
half-life at 100 µM [23]: 36.8 h
Activity [8]: 36 µM
IC50 [9]: 230 nM

Cc1c(C)c2ccc(OCCC3CCN(CCCO)CC3)cc2oc1=O
inhibition [11]: 39%
inhibition at 10 µM [12]: 35%
inhibition at 10 µM [16]: 31%
IC50 [10]: 720 nM

CN(C)Cc1cc(=O)oc2cc(OCc3cccc(CO)c3)ccc12
inhibition [11]: 35%
IC50 [4]: 1100 nM
inhibition at 10 µM [12]: 21%
IC50 [10]: 4400 nM

Cc1cc(=O)oc2cc(OCC3CCN(Cc4cccc(CO)c4)CC3)ccc12
IC50 [3]: 1900 nM
IC50 [4]: 480 nM
IC50 [9]: 3500 nM
IC50 [10]: 1600 nM

Cc1cc2ccc(OCC3CCN(Cc4ccc(CO)cc4)CC3)cc2oc1=O
IC50 [3]: 8100 nM
IC50 [4]: 3100 nM
inhibition at 10 µM [12]: 43%
IC50 [10]: 3000 nM
